Test results reported in the supplement of paper PMC4862054.

Columns and labels:
Experiment in all cases: normalised response (% of control), CellTiter-Glo; higher = more viable cells (100 = DMSO, 0 = benzethonium chloride kill control)
Settings in all cases: incubation time: 72 h
[1] = tested on: MFM-223
Method in brief: (§1)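 A 20 µl suspension of breast cancer cells was seeded into each well of 384-well plates containing compound at 5 concentrations in 10-fold steps over a compound-specific 10,000-fold range. After 72 h incubation, CellTox Green fluorescence (485/520 nm) was read first, and CellTiter-Glo luminescence was read after 10 min at room temperature. Each plate was normalised against 0.1 % DMSO (100) and a positive kill control (0), and each value is the normalised signal at one concentration.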

[2] = tested on: BT-474
Method in brief: as §1

[3] = tested on: MDA-MB-231
Method in brief: as §1

[4] = tested on: MCF-10A
Method in brief: as §1

[5] = tested on: SK-BR-3
Method in brief: as §1

[6] = tested on: CAL-85-1
Method in brief: as §1

[7] = tested on: CAL-51
Method in brief: as §1

[8] = tested on: CAL-148
Method in brief: as §1

[9] = tested on: MDA-MB-436
Method in brief: as §1

[10] = tested on: HDQ-P1
Method in brief: as §1

[11] = tested on: CAL-120
Method in brief: as §1

[12] = tested on: MDA-MB-453
Method in brief: as §1

[13] = tested on: HCC1937
Method in brief: as §1

[14] = tested on: HCC1599
Method in brief: as §1

[15] = tested on: MDA-MB-468
Method in brief: as §1

[16] = tested on: DU-4475
Method in brief: as §1

[17] = tested on: BT-549
Method in brief: as §1

[18] = tested on: HCC1143
Method in brief: as §1

[19] = tested on: Hs578T
Method in brief: as §1

In the case of `CC(C)(C)Cn1c(N)nc2ccc(-c3[nH]c(C(C)(C)C)nc3-c3ccc(F)cc3)nc21` (1 nM), the normalised response [1] is reported as 106%, the normalised response [2] is reported as 103% and the normalised response [3] is reported as 99.3%. For the same compound, the normalised response [4] was 109%, the normalised response [5] was 104% and the normalised response [6] was 99.9%. It also gave a normalised response [7] of 117%, a normalised response [8] of 110% and a normalised response [9] of 101%. The normalised response [10] was 101%, the normalised response [11] was 98.8% and the normalised response [12] was 110%. For the same compound, the normalised response [13] was 105%, the normalised response [14] was 104% and the normalised response [15] was 102%. The normalised response [16] was 98.1%, the normalised response [17] was 103% and the normalised response [18] was 104%. It also gave a normalised response [19] of 95.4%.
Compound `CC(C)(C)Cn1c(N)nc2ccc(-c3[nH]c(C(C)(C)C)nc3-c3ccc(F)cc3)nc21` (10 nM) has a normalised response [1] of 105%, a normalised response [2] of 103% and a normalised response [3] of 99.7%. It also gave a normalised response [4] of 106%, a normalised response [6] of 97.8% and a normalised response [7] of 97.5%. The normalised response [8] was 110%, the normalised response [9] was 104% and the normalised response [10] was 95.6%. For the same compound, the normalised response [11] was 97.8%, the normalised response [12] was 104% and the normalised response [13] was 95.1%. The normalised response [14] was 95.5%, the normalised response [15] was 102% and the normalised response [16] was 105%. For the same compound, the normalised response [17] was 95.9%, the normalised response [18] was 104% and the normalised response [19] was 106%.
For `Cn1cc(C[C@@H](N)C(=O)O)c2ccccc21` [1-methyl-D-tryptophan] (0.5 nM), the normalised response [1] was 92.8%, the normalised response [2] was 96.1% and the normalised response [3] was 95.2%. It also gave a normalised response [4] of 97.1%, a normalised response [5] of 93% and a normalised response [6] of 94.3%. It also gave a normalised response [7] of 113%, a normalised response [8] of 87.4% and a normalised response [9] of 103%. The normalised response [10] was 105%, the normalised response [11] was 95.6% and the normalised response [12] was 99.4%. For the same compound, the normalised response [13] was 97.6%, the normalised response [14] was 102% and the normalised response [15] was 98%. The normalised response [16] was 101%, the normalised response [17] was 101% and the normalised response [18] was 96.5%. The normalised response [19] was 99.3%.
For `Cn1cc(C[C@@H](N)C(=O)O)c2ccccc21` [1-methyl-D-tryptophan] (5 nM), the normalised response [1] was 94.2%, the normalised response [2] was 100% and the normalised response [3] was 96.8%. It also gave a normalised response [4] of 95.2%, a normalised response [5] of 99.8% and a normalised response [6] of 91.3%. It also gave a normalised response [7] of 94.2%, a normalised response [8] of 88.9% and a normalised response [9] of 107%. For the same compound, the normalised response [10] was 104%, the normalised response [11] was 95.1% and the normalised response [12] was 90.1%. The normalised response [13] was 98.5%, the normalised response [14] was 107% and the normalised response [15] was 98.3%. It also gave a normalised response [16] of 95.8%, a normalised response [17] of 95.7% and a normalised response [18] of 102%. For the same compound, the normalised response [19] was 93.2%.
With `CC[C@H](CC#N)OC(=O)N[C@@H](C)c1cccc(NC(=O)Nc2ccc(-c3cnco3)c(OC)c2)c1` [AVN944] (1 nM) the normalised response [1] was 93.5%, the normalised response [2] was 89.2% and the normalised response [3] was 96.1%. The normalised response [4] was 99.1%, the normalised response [5] was 95.7% and the normalised response [6] was 97%. For the same compound, the normalised response [7] was 112%, the normalised response [8] was 99.8% and the normalised response [9] was 91.1%. It also gave a normalised response [10] of 99.4%, a normalised response [11] of 96.7% and a normalised response [12] of 99.6%. The normalised response [13] was 103%, the normalised response [14] was 90.3% and the normalised response [15] was 97.2%. The normalised response [16] was 97.9%, the normalised response [17] was 98.5% and the normalised response [18] was 93.2%. It also gave a normalised response [19] of 97.8%.
With `CC[C@H](CC#N)OC(=O)N[C@@H](C)c1cccc(NC(=O)Nc2ccc(-c3cnco3)c(OC)c2)c1` [AVN944] (10 nM) the normalised response [1] was 96.2%, the normalised response [2] was 89.4% and the normalised response [3] was 101%. The normalised response [4] was 99.7%, the normalised response [6] was 95.8% and the normalised response [7] was 122%. For the same compound, the normalised response [8] was 99.3%, the normalised response [9] was 97.6% and the normalised response [10] was 100%. It also gave a normalised response [11] of 95%, a normalised response [12] of 82.7% and a normalised response [13] of 96%. For the same compound, the normalised response [14] was 88.6%, the normalised response [15] was 111% and the normalised response [16] was 97.5%. For the same compound, the normalised response [17] was 91.5%, the normalised response [18] was 97.3% and the normalised response [19] was 96.4%.
`Cc1c(N)nc([C@H](CC(N)=O)NC[C@H](N)C(N)=O)nc1C(=O)N[C@H](C(=O)N[C@H](C)[C@@H](O)[C@H](C)C(=O)N[C@H](C(=O)NCCc1nc(-c2nc(C(=O)NCCC[S+](C)C)cs2)cs1)[C@@H](C)O)[C@@H](OC1OC(CO)C(O)C(O)C1OC1OC(CO)C(O)C(OC(N)=O)C1O)c1cnc[nH]1` (some centres not stated) [Bleomycin] (10 nM) was tested, and the normalised response [1] was 101%, the normalised response [2] was 95.7% and the normalised response [3] was 96.3%. For the same compound, the normalised response [4] was 100%, the normalised response [5] was 106% and the normalised response [6] was 96.1%. For the same compound, the normalised response [7] was 97.5%, the normalised response [8] was 85% and the normalised response [9] was 94.2%. The normalised response [10] was 97.6%, the normalised response [11] was 97.3% and the normalised response [12] was 104%. The normalised response [13] was 93.3%, the normalised response [14] was 97.7% and the normalised response [15] was 98%. The normalised response [16] was 98.1%, the normalised response [17] was 87.6% and the normalised response [18] was 98.9%. The normalised response [19] was 99.8%.
For `Cc1cc2c(F)c(Oc3ncnn4cc(OC[C@@H](C)O)c(C)c34)ccc2[nH]1` [Brivanib] (1 nM), the normalised response [1] was 110%, the normalised response [2] was 107% and the normalised response [3] was 104%. The normalised response [4] was 107%, the normalised response [6] was 102% and the normalised response [7] was 74.5%. It also gave a normalised response [8] of 111%, a normalised response [9] of 102% and a normalised response [10] of 97.8%. The normalised response [11] was 98.9%, the normalised response [12] was 107% and the normalised response [13] was 102%. It also gave a normalised response [14] of 103%, a normalised response [15] of 108% and a normalised response [16] of 111%. It also gave a normalised response [17] of 95.2%, a normalised response [18] of 104% and a normalised response [19] of 103%.
Compound `CCCCCOC(=O)Nc1nc(=O)n([C@@H]2O[C@H](C)[C@@H](O)[C@H]2O)cc1F` [Capecitabine] (10 nM) has a normalised response [1] of 103%, a normalised response [2] of 99.6% and a normalised response [3] of 96.4%. For the same compound, the normalised response [4] was 105%, the normalised response [5] was 99.5% and the normalised response [6] was 97.4%. It also gave a normalised response [7] of 99.6%, a normalised response [8] of 110% and a normalised response [9] of 98.7%. For the same compound, the normalised response [10] was 99.6%, the normalised response [11] was 102% and the normalised response [12] was 107%. For the same compound, the normalised response [13] was 98.8%, the normalised response [14] was 86.9% and the normalised response [15] was 91.9%. It also gave a normalised response [16] of 100%, a normalised response [17] of 93.2% and a normalised response [18] of 96.9%. For the same compound, the normalised response [19] was 98.1%.
`CC(C)C[C@H](NC(=O)[C@H](CCc1ccccc1)NC(=O)CN1CCOCC1)C(=O)N[C@@H](Cc1ccccc1)C(=O)N[C@@H](CC(C)C)C(=O)[C@@]1(C)CO1` [Carfilzomib] (1 nM) showed a normalised response [1] of 112%, a normalised response [2] of 115% and a normalised response [3] of 105%. The normalised response [4] was 115%, the normalised response [5] was 107% and the normalised response [6] was 105%. The normalised response [7] was 87.7%, the normalised response [8] was 108% and the normalised response [9] was 109%. It also gave a normalised response [10] of 108%, a normalised response [11] of 105% and a normalised response [12] of 101%. For the same compound, the normalised response [13] was 101%, the normalised response [14] was 108% and the normalised response [15] was 106%. For the same compound, the normalised response [16] was 108%, the normalised response [17] was 99.5% and the normalised response [18] was 106%. The normalised response [19] was 100%.
